Reference: patent publication US6043228A, “O^6 -substituted guanine derivatives, a process for their preparation and their use in treating tumor cells” (Cancer Research Campaign Technology Limited, priority 1993, dated 2000)
“Also recorded” adds a separate entry of the source. Where two headings read alike, the source gives them in different places.

How the values were obtained:
recombinant human ATase = target: T1, recombinant human ATase (Homo sapiens, UniProt P16455); assay: In vitro ATase inactivation assay (incubation with inactivators and ATase assay); assay type: biochemical; conditions: for ATase inactivation in vitro, result in words: recombinant human ATase, standard conditions
T1 construct: made in house
T1 sequence (P16455 1-207): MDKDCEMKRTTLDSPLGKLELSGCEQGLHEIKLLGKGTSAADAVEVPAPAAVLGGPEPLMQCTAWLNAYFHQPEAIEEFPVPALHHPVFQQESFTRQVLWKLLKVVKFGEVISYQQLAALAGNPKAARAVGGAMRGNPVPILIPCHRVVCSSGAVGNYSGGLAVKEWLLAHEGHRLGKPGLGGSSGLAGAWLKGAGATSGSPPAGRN
Protocol: The cDNA cloning and overexpression of the human ATase has been reported previously^23. Purification of the recombinant proteins was achieved either by affinity chromatography through a DNA-cellulose column as described by Wilkinson et al.,^25, 26 or by DEAE-cellulose ion-exchange chromatography. For the latter, the ATase protein was partially purified by ammonium sulphate precipitation (30-60%) and dialysed against 10 mM Tris-HCl pH 7.5, 1 mM DTT, 2 mM EDTA, 10% glycerol, before loading on a DEAE-cellulose column. The ATase was then eluted with a 0-0.1 M NaCl gradient.
Compounds to be tested were dissolved in DMSO to a final concentration of 10 mM and diluted just before use in buffer I containing 1 mg/ml bovine serum albumin (IBSA). Recombinant ATase was diluted in IBSA and titrated in order that the reaction be conducted under ATase, and not substrate, limiting conditions. […] Following acid hydrolysis of the DNA as previously described^21 the [^3 H]-methylated protein was recovered and quantitated by liquid scintillation counting. Samples were typically assayed in duplicate and experiments repeated several times. I50 is the concentration of inactivator required to produce a 50% reduction in ATase activity.

[1] = target: T2, ATase in human melanoma xenografts (Homo sapiens, UniProt P16455); assay: ATase activity in human melanoma (A375) xenografts grown in nude mice after inactivator; assay type: in vivo; conditions: single i.p. dose 30 or 60 mg/kg (FIG. 17)
T2 construct: A375M cells are human melanoma cells from which the xenografts described below were established; endogenous in cells; host or cells: A375M xenograft grown in nude mice
T2 sequence (P16455 1-207): T1 sequence (P16455 1-207)
Protocol: Cells (10^6) in 100 μl of PBS were injected subcutaneously into the right-hand flank of 8-10 week old nu/nu athymic mice. These cells were allowed to develop into a tumour for 3-4 weeks for passaging into experimental animals. Tumour blocks measuring 2 mm×2 mm×2 mm were implanted subcutaneously on the right hand flank. These animals were ready for use in inactivator experiments in 7-10 days.
ATase substrate DNA was prepared by incubation of purified calf thymes DNA with N-[^3 H]-methyl-N-nitrosuourea (18.7 Ci/mmole, Amersham International). Cell or tissue extracts (see 4.4) were incubated with [^3 H]-methylated-DNA substrate (100 μl containing 6.7 μg of DNA and 100 fmol of O^6 -[^3 H]methylguanine) at 37° C. for 60 mins. Following acid hydrolysis of the DNA as precviously described^21the [^3 H]-methylated protein was recovered and quantitated by liquid scintillation counting.
Mice were treated with the inactivator as a suspension in corn oil by intraperitoneal injection (i.p.) or by oral gavage (p.o.) 60 mins prior to temozolomide (100 mg/kg in 20% DMSO in phosphate-buffered saline) which was always given by intraperitoneal injection: this schedule was repeated on days 1 to 5 inclusive. Controls received vehicle alone, inactivator alone or temozolomide alone.

Raji cells [2] = assay: Sensitization of Raji cells to temozolomide (XTT assay); assay type: cell-based, human; conditions: 0.1-5.0 μM inactivator (FIGS. 3, 4)
Protocol: (§1) Following a 2 hour incubation at 37° C., medium containing either increasing doses of BCNU, temozolomide or equivalent vehicle was added and the cells allowed to grow for 6 days. At this time XTT solution was added and the cells incubated for a further 4 hours at 37° C. The resulting red/orange formazan reaction product was quantified by measuring absorption at 450 nm on a microtitre platereader.

nude mice = assay: Xenograft study: survival of nude mice given inactivator plus BCNU; conditions: in combination with BCNU (FIGS. 9-13)
Source text: BALB-C derived athymic male mice (nu/nu athymic) weighing between 25-35 g were obtained from the in-house breeding colony of the Paterson Institute for Cancer Research, Christie Hospital NHS Trust, Wilmslow Road, Manchester M20 9BX, England (ASU mice). The animals were housed in a sterile environment until required for experiments. In one experiment mice were obtained from Harlan-Olac, Harlan UK Limited, Shaw's Farm, Blackthorn, Bicester, Oxon. OX6 OPT, England (OLAC mice).

Raji cells [3] = assay: Sensitization of Raji cells to BCNU (XTT assay); assay type: cell-based, human; conditions: 1.0 μM inactivator (FIG. 2)
Protocol: as §1

[4] = Toxicity of inactivators in combination with BCNU in DBA2 mice; assay type: in vivo, mouse; conditions: mouse, in vivo, ip, 60 mg/kg, single i.p. dose, read-out: % SURVIVAL AFTER 14 DAYS
Source text: All agents were given as a single i.p. dose

[5] = tested on: human bone marrow granulocyte macrophage colony forming cells; assay: Sensitization of bone marrow cells to temozolomide (GM-CFC assay); assay type: cell-based
Source text: For the granulocyte/macrophage colony-forming cell (GM-CFC) assay primary human bone marrow samples were obtained from patients undergoing cardiothoracic surgery. […] The colonies represented precursor cells of the granulocyte/macrophage lineage (huGM-CFC). Survival was expressed as a % of the number of colonies at zero dose temozolomide.

[6] = Table 9, pure recombinant ATase in vitro, read-out: I50 (μm)

Compound | ATase inactivation in vitro, result in words (recombinant human ATase) | IC50 (recombinant human ATase; [6]) [nM] | further results
CC(Oc1nc(N)nc2[nH]cnc12)c1ccccc1 (racemic) [B.4214, DL-0^6 -(α-methylbenzyl)guanine, reference compound] | reduce greatly the inactivating activity; also recorded: did not inactivate ATase up to the highest concentration used |  | 
CC(Oc1nc(N)nc2[nH]cnc12)c1cccs1 (racemic) [B.4217, DL-0^6 -(α-methylthenyl)guanine] | reduce greatly the inactivating activity; also recorded: did not inactivate ATase up to the highest concentration used |  | 
Nc1nc(OCc2ccsc2)c2nc[nH]c2n1 [B.4206, 0^6-(3-thienylmethyl)guanine] | somewhat more effective than BeG; also recorded: I50 values lower than that of BeG |  | 
Nc1nc(OCc2ccc3c(c2)OCO3)c2nc[nH]c2n1 [B.4212, 0^6 -piperonylguanine] | considerably better; also recorded: I50 values lower than that of BeG |  | 
Nc1nc(OCc2cc3ccccc3s2)c2nc[nH]c2n1 [B.4226, 0^6-(2-benzo[b]thienylmethyl)guanine] | I50 values lower than that of BeG |  | 
COc1ccccc1COc1nc(N)nc2[nH]cnc12 [B.4231, O^6-(2-methoxybenzyl)guanine, reference compound] |  |  | IC50 (recombinant human ATase; Table 4, 1 hour incubation with inactivator at 37° C., read-out: I50): 60000 nM
Nc1nc(OCc2cc3ccccc3o2)c2nc[nH]c2n1 [B.4266, 0^6-(2-benzofuranylmethyl)guanine] | I50 values lower than that of BeG |  | 
Nc1nc(OCc2ccc(Br)s2)c2nc[nH]c2n1 [B.4269, 0^6-(5-bromothenyl)guanine] | more efficient than the unsubstituted thenyl derivative B.4205; also recorded: I50 values lower than that of BeG |  | 
N#Cc1ccc(COc2nc(N)nc3[nH]cnc23)o1 [B.4273, 0^6-(5-cyanofurfuryl)guanine] | I50 values lower than that of BeG |  | 
Nc1nc(OCc2cncs2)c2nc[nH]c2n1 [B.4275, 0^6-(5-thiazolylmethyl)guanine] | I50 values lower than that of BeG |  | 
Nc1nc(OCc2ccc(Cl)s2)c2nc[nH]c2n1 [B.4281, O^6-(5-chlorothenyl)guanine] |  | 4 | 
N#Cc1ccc(COc2nc(N)nc3[nH]cnc23)s1 [B.4283, O^6-(5-cyanothenyl)guanine] |  | 5 | 
C[S+]([O-])c1ccc(COc2nc(N)nc3[nH]cnc23)s1 (stereo not drawn) [B.4294, O^6-(5-methylsulphinylthenyl)guanine] |  | 30 | 
Nc1nc(OCc2cc(Cl)cs2)c2nc[nH]c2n1 [B.4298, O^6-(4-chlorothenyl)guanine] |  | 8 | 
COc1csc(COc2nc(N)nc3[nH]cnc23)c1 [B.4300, O^6-(4-methoxythenyl)guanine] |  | 16.5 | 
Nc1nc(OCc2csc(Br)c2)c2nc[nH]c2n1 [B.4313, O^6-(5-bromo-3-thienylmethyl)guanine] |  | 6.5 | 
N#Cc1csc(COc2nc(N)nc3[nH]cnc23)c1 [B.4317, O^6-(4-cyanothenyl)guanine] | more efficient inactivator in vitro than its 5-cyano analogue B.4283 or the unsubstituted thenyl derivative B.4205 | 2.8 | 
Nc1nc(OCc2cc(Cl)c(Cl)s2)c2nc[nH]c2n1 [B.4318, O^6-(4,5-dichlorothenyl)guanine] |  | 15 | 
Nc1nc(OCc2ccnc(Cl)c2)c2nc[nH]c2n1 [B.4321, O^6-(2-chloro-4-picolyl)guanine] |  | 40 | 
Nc1nc(OCc2ccc(Br)o2)c2nc[nH]c2n1 [B.4336, O^6-(5-bromofurfuryl)guanine] |  | 20 | 
Nc1nc(OCc2ccccc2)c2nc[nH]c2n1 [O^6 -benzylguanine, reference compound] |  |  | inactivation of ATase in human melanoma xenografts, in words [1]: inactivated; dose response of Raji sensitization to temozolomide, in words (Raji cells [2]): clear dose response; death of treated animals (nude mice): up to 70%; sensitizing Raji cells to growth inhibitory effects of BCNU, in words (Raji cells [3]): equally effective; survival at 336 h ([4]; inactivator 60 mg/kg + 10 mg/kg BCNU): 50%; survival at 336 h ([4]; inactivator 60 mg/kg + 15 mg/kg BCNU (footnote *)): 0%; survival at 336 h ([4]; inactivator 60 mg/kg + 20 mg/kg BCNU): 33%; sensitization of GM-CFC to cytotoxic effects of temozolomide, in words ([5]; four different patient samples, 10 μM (FIG. 23)): sensitized; sensitization of GM-CFCs to toxic effects of temozolomide, in words ([5]; three human bone marrow samples (FIG. 14)): sensitised
